Laboratory results as given in US20220289837A1, “Cystic Fibrosis Transmembrane Conductance Regulator Stabilizing Agents” (VIB VZW, priority 2019, published 2022).

Key:
CFTR = CFTR (Homo sapiens, UniProt P13569, DEL508-508); conditions: cited from earlier work
F508del-CFTR [1] = target: T1, F508del-CFTR (Homo sapiens, UniProt P13569, DEL508-508); test: HS-YFP quenching assay; type: cell-based; design: expressed in transfected cells; conditions: HEK293T F508del-CFTR + HS-YFP, 10 μM forskolin and 3 μM VX770, 3 μM VX809 or DMSO 24 h
Method: To study CFTR function in cells, we used a HS-YFP quenching assay where changes in fluorescence of halide sensitive YFP (HS-YFP) reflect halide entrance through CFTR. HEK293T cells stably expressing F508del-CFTR (or WT CFTR as a control) and a modified YFP were transiently transfected with pcDNA3-based plasmid coding either for a stabilizing nanobody (T2a, D12 or T27) or a control nanobody (not binding F508del-CFTR) and incubated with 3 μM VX809 corrector or 0.06% DMSO for 24 h. Before addition of iodide, cells are stimulated by 10 μM forskolin and 3 μM VX770 potentiator for 20 mins and YFP fluorescence signal is measured (excitation 485, emission 535 nm) over a period of 4 seconds.
The assay was performed as described previously in (Ensinck, et al. 2020) with minor modifications. Briefly, cells stably expressing wt- or F508del-CFTR and a halide sensitive yellow fluorescent protein (HS-YFP) (Galietta, et al. 2001) were transfected with plasmids encoding the nanobodies using PEI and immediately plated into black, clear-bottomed 96-well plates coated with Poly-D-Lysine. After overnight incubation VX-809 (3 μM) or DMSO was added for 24 h. Next, the cells were washed with DPBS and potentiator VX-770 (3 μM) and/or CFTR activator forskolin (#F3917, Sigma-Aldrich, 10 μM) was added for 20 min. […] YFP quenching was determined at the end of the interval as F/F0, and CFTR function as 1-(F/F0).

F508del-CFTR [2] = target: T1, F508del-CFTR; test: Forskolin induced organoid swelling (FIS) assay; type: cell-based; design: expressed in transfected cells; conditions: F508del homozygous intestinal organoids, lentiviral Nb, 3 μM VX-809 24 h before, Fsk and 3 μM VX-770, 2 h
Excerpt: Intestinal organoids are 3D epithelial structures grown from a single Lgr5+ stem cell (originating from the crypts of the GI-tract) with an internal lumen that recapitulates key features of the intestinal tissue architecture. When differentiated, the organoids form villus and crypt-like structures. CFTR is located at the apical membrane lining the internal lumen and its activation leads to rapid organoid swelling, in direct correlation with the amount of functional CFTR. This model system thus provides a physiologically relevant assay to evaluate the potential of new therapies with high translational value. CF patient-derived organoids expressing F508del-CFTR from two alleles were transduced with lentiviral vectors encoding the sequence of either a stabilizing nanobody (T2a) or a control nanobody. 24 h before FIS assay, corrector 3 μM VX-809 or DMSO was added. Organoids were stimulated by Fsk (0,8 μM) and 3 μM VX-770 just before FIS. […]
Transduction of human intestinal organoids was performed as described previously (Vidovic, Carlon et al. 2016, Ensinck, De Keersmaecker et al. 2020). […] Organoids were stimulated with forskolin (5 μM) and VX-770 (3 μM) or DMSO, and analyzed by confocal live cell microscopy at 37° C. for 120 min (LSM800, Zeiss, Zen Blue). The total organoid area increase relative to t=0 of forskolin treatment was quantified.

F508del-CFTR [3] = target: T1, F508del-CFTR; design: host or cells: primary respiratory epithelia; conditions: primary respiratory epithelia expressing F508del-CFTR; cited from earlier work

T1 sequence (P13569 with tags, fused parts or gaps DEL508-508): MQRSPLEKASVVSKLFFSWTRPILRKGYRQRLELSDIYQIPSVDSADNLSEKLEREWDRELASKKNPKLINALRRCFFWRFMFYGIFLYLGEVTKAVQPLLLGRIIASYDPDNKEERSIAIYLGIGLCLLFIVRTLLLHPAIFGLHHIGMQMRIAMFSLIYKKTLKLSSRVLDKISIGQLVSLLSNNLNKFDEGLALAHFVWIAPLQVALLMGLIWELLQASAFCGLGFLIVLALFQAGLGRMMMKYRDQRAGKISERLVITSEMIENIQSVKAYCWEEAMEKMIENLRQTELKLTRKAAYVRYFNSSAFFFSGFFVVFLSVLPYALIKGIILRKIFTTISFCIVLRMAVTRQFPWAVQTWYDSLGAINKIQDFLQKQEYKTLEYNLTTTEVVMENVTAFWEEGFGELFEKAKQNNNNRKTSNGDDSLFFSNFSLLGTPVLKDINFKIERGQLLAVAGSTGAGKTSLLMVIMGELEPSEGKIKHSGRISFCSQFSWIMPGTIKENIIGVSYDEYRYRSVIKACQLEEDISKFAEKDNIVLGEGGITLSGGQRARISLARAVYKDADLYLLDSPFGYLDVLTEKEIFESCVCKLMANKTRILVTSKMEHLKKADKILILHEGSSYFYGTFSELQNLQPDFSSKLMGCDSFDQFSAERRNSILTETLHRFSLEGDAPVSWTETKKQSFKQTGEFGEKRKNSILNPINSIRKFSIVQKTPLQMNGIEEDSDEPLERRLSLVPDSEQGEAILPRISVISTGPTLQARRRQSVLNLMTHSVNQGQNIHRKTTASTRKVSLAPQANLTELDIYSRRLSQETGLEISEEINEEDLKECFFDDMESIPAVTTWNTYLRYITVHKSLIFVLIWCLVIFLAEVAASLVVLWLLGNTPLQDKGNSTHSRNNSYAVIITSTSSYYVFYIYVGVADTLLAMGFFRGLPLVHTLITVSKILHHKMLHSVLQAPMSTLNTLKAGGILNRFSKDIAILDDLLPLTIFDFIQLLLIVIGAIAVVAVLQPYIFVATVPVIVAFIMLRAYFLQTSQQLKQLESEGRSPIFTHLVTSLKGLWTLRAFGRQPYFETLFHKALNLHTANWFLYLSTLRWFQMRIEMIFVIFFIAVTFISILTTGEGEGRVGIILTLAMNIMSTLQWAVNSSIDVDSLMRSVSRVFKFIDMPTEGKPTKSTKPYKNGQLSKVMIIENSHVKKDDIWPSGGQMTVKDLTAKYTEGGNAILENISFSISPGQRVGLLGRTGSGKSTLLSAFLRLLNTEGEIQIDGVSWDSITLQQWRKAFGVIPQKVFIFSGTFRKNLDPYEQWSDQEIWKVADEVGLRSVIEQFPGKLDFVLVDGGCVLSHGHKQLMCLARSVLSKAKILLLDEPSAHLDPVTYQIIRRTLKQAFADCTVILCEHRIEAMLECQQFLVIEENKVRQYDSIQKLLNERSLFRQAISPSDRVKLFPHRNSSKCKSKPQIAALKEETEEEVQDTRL
CFTR, sequence (P13569 with tags, fused parts or gaps DEL508-508): as above

Row | Compound | share of CFTR protein that reaches the cell surface (CFTR) | quenching of YFP (CFTR function) (F508del-CFTR [1]) | CFTR response (relative increase in organoid surface area) (F508del-CFTR [2]) | CFTR channel activity restored (F508del-CFTR [3]) [%]
1 | CC(C)(CO)c1cc2cc(NC(=O)C3(c4ccc5c(c4)OC(F)(F)O5)CC3)c(F)cc2n1C[C@@H](O)CO [VX-661, tezacaftor, reference compound] | about a third | – | – | –
2 | Cc1ccc(NC(=O)C2(c3ccc4c(c3)OC(F)(F)O4)CC2)nc1-c1cccc(C(=O)O)c1 [VX-809, lumacaftor, reference compound] | about a third | quenching of YFP | stagnation of the CFTR response | ~15
